pKi: −log10 of the molar value.

What all share (assay type): biochemical
One assay has as its target JAK1 kinase domain (Homo sapiens (Human), UniProt P23458). The assay is described as follows: JAK1 inhibition assay (Caliper LabChip, isolated kinase domain). The settings on record: 25 uM ATP, 1.5 nM JAK1; read-out: JAK1 enzymatic activity (Ki). An excerpt: (§1) The catalytically active kinase domain of human JAK1, JAK2, JAK3 or TYK2 was purified from extracts of SF9 insect cells infected with a recombinant baculovirus expression vector encoding the human JAK1, JAK2, JAK3 or TYK2 kinase domains (JAK1 amino acid residues N852-D1154 according to the numbering of GenBank sequence accession number P23458, JAK2 amino acid residues D812-G1132 according to the numbering of GenBank sequence accession number NP_004963.1; JAK3 amino acid residues S783-S1124 according to the numbering of GenBank sequence accession number P52333, and TYK2 amino acid residues N873-C1187 according to the numbering of GenBank sequence accession number P29597). The activity of the JAK1, JAK2, JAK3 or TYK2 kinase domains can be measured by a number of direct and indirect methods, including quantification of phosphorylation of peptide substrates derived from the human JAK3 protein (Saltzman et al., Biochem. Biophys. Res. Commun. 246:627-633 (2004)). The activity of the JAK1, JAK2, JAK3 or TYK2 kinase domains was measured in vitro by monitoring phosphorylation of JAK3 derived peptides using the Caliper LabChip technology (see Examples).
(§2) The activity of the isolated JAK1, JAK2 or TYK2 kinase domain was measured by monitoring phosphorylation of a peptide derived from JAK3 ([…] fluorescently labeled on the N-terminus with 5-carboxyfluorescein using the Caliper LabChip technology (Caliper Life Sciences, Hopkinton, Mass.). […] Reactions were incubated at 22° C. in 384-well polypropylene microtiter plates for 30 minutes and then stopped by addition of 25 uL of an EDTA containing solution (100 mM Hepes pH 7.2, 0.015% Brij-35, 150 mM EDTA), resulting in a final EDTA concentration of 50 mM. After termination of the kinase reaction, the proportion of phosphorylated product was determined as a fraction of total peptide substrate using the Caliper LabChip 3000 according to the manufacturer's specifications. Ki values were then determined using the Morrison tight binding model. Morrison, J. F., Biochim. Biophys. Acta. 185:269-296 (1969); William, J. W. and Morrison, J. F., Meth. Enzymol., 63:437-467 (1979).

The target of a further assay is JAK2 kinase domain (Homo sapiens (Human), UniProt O60674). Kind of assay: JAK2 inhibition assay (Caliper LabChip, isolated kinase domain). Conditions: 25 uM ATP, 0.2 nM JAK2; read-out: JAK2 enzymatic activity (Ki).
From the text: as §1, §2

The next assay concerns the target TYK2 kinase domain (Homo sapiens (Human), UniProt P29597). Kind of assay: TYK2 inhibition assay (Caliper LabChip, isolated kinase domain). Conditions: 25 uM ATP, 1 nM TYK2; read-out: TYK2 enzymatic activity (Ki).
From the text: as §1, §2

The target of another assay is JAK3 kinase domain (Homo sapiens (Human), UniProt P52333). Kind of assay: JAK3 inhibition assay (Caliper LabChip, isolated kinase domain). The settings on record: 5 uM ATP, 5 nM JAK3; read-out: JAK3 enzymatic activity (Ki).
From the text: as §1, with “Previous studies have shown that the isolated kinase domains of human JAK1, JAK2, JAK3 or TYK2 phosphorylate peptide substrates in in vitro kinase assays (Saltzman et al., Biochem. Biophys. Res. Commun. 246:627-633 (2004)). The catalytically” for “The catalytically”
as §2, with “JAK3” for “JAK1, JAK2 or TYK2”

Chain of JAK2 kinase domain (O60674 812-1132): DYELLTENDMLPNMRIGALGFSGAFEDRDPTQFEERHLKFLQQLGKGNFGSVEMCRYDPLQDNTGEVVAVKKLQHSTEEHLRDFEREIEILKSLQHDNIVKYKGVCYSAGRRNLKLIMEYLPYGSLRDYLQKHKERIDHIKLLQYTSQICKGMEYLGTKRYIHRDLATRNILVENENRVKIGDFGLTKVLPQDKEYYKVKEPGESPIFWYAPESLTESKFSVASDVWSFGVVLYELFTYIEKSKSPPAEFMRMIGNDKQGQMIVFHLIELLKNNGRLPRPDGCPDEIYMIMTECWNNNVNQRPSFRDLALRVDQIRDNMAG
Chain of JAK3 kinase domain (P52333 783-1124): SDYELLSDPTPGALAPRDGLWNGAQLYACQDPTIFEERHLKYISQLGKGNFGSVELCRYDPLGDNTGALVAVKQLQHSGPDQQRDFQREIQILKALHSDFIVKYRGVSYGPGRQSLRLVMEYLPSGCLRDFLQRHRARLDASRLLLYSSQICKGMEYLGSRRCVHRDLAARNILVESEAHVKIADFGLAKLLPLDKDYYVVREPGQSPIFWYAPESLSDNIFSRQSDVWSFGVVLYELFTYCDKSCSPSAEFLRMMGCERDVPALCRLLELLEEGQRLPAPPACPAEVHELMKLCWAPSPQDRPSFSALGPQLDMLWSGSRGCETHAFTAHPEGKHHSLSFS
Chain of JAK1 kinase domain (P23458 852-1154): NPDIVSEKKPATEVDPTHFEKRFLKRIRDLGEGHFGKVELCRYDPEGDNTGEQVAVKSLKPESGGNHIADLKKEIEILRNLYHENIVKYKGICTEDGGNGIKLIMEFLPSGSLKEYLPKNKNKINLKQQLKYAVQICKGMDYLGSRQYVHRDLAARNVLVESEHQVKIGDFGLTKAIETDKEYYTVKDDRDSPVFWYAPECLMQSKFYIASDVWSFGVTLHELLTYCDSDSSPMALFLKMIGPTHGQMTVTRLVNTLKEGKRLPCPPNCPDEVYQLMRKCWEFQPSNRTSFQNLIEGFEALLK
Chain of TYK2 kinase domain (P29597 873-1187): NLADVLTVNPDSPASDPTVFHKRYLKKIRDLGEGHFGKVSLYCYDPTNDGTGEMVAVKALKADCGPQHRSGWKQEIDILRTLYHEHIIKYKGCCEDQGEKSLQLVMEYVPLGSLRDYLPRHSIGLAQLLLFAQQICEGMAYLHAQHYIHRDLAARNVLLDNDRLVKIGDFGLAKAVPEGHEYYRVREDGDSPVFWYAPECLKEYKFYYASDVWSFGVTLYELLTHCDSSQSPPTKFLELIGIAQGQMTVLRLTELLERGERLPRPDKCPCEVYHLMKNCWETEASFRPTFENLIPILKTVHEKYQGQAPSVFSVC

As to `CCOc1ccc(Cl)cc1-c1nn([C@H]2CCCC[C@@H]2O)cc1NC(=O)c1cnn2cccnc12` (stereo in doubt) [Example 414, N-(3-(5-chloro-2-ethoxyphenyl)-1-((1S,2S)-2-hydroxycyclohexyl)-1H-pyrazol-4-yl)pyrazolo[1,5-a]pyrimidine-3-carboxamide And N-(3-(5-chloro-2-ethoxyphenyl)-1-((1R,2R)-2-hydroxycyclohexyl)-1H-pyrazol-4-yl)pyrazolo[1,5-a]pyrimidine-3-carboxamide], the pKi on JAK1 kinase domain is 8.42; on JAK2 kinase domain, 7.90; on TYK2 kinase domain, 7.12; at JAK3 kinase domain it was 6.68.
Take `Cc1cc(NC(=O)c2cnn3cccnc23)n(-c2cc(Cl)ccc2C)n1` [Example 6, N-(1-(5-chloro-2-methylphenyl)-3-methyl-1H-pyrazol-5-yl)pyrazolo[1,5-a]pyrimidine-3-carboxamide]: the pKi on JAK1 kinase domain is 7.34; on JAK2 kinase domain, 8.31; on TYK2 kinase domain, 7.00; at JAK3 kinase domain, 6.82.
In the case of `Cc1cc(NC(=O)c2cnn3cccnc23)n(-c2cc(C#N)ccc2Cl)n1` [Example 38, N-(1-(2-chloro-5-cyanophenyl)-3-methyl-1H-pyrazol-5-yl)pyrazolo[1,5-a]pyrimidine-3-carboxamide], the pKi is 7.39 on JAK1 kinase domain, 8.24 at JAK2 kinase domain, 6.88 at TYK2 kinase domain and 6.99 on JAK3 kinase domain.
Taken in the same sequence, the figures for `Cc1cc(NC(=O)c2cnn3cccnc23)n(-c2cc(Cl)ccc2Cl)n1` [Example 41, N-(1-(2,5-dichlorophenyl)-3-methyl-1H-pyrazol-5-yl)pyrazolo[1,5-a]pyrimidine-3-carboxamide] were 7.45, 8.48, 6.98 and 7.13.
Taken in the same sequence, the figures for `Cc1cc(NC(=O)c2cnn3cccnc23)n(-c2ccccc2Br)n1` [Example 44, N-(1-(2-bromophenyl)-3-methyl-1H-pyrazol-5-yl)pyrazolo[1,5-a]pyrimidine-3-carboxamide] were 6.88, 7.74, 6.32 and 6.85.
For `O=C(Nc1ccnn1-c1ccccc1Cl)c1cnn2cccnc12` [Example 51, N-(1-(2-chlorophenyl)-1H-pyrazol-5-yl)pyrazolo[1,5-a]pyrimidine-3-carboxamide], the pKi at JAK1 kinase domain is 7.08; on JAK2 kinase domain it was 7.82; on TYK2 kinase domain it was 7.01; at JAK3 kinase domain it was 6.82.
As for `O=C(Nc1ccnn1-c1ccc(Cl)cc1)c1cnn2cccnc12` [Example 54, N-(1-(4-chlorophenyl)-1H-pyrazol-5-yl)pyrazolo[1,5-a]pyrimidine-3-carboxamide], the pKi on JAK1 kinase domain was 5.92; at JAK2 kinase domain, 6.80; at TYK2 kinase domain it was 6.07.
As to `O=C(Nc1ccncc1-c1cccc(F)c1)c1cnn2cccnc12` [Example 63, N-(3-(3-fluorophenyl)pyridin-4-yl)pyrazolo[1,5-a]pyrimidine-3-carboxamide], the pKi at JAK1 kinase domain was 6.82; on JAK2 kinase domain it was 7.64; on TYK2 kinase domain, 6.85; at JAK3 kinase domain, 6.70.
Taken in the same sequence, the figures for `COc1ccc(Cl)cc1-c1c(NC(=O)c2cnn3cccnc23)cnn1CCO` [Example 109, N-(5-(5-chloro-2-methoxyphenyl)-1-(2-hydroxyethyl)-1H-pyrazol-4-yl)pyrazolo[1,5-a]pyrimidine-3-carboxamide] were 8.36, 9.00, 8.25 and 7.74.
As to `COc1cnc(C(F)(F)F)cc1-c1nn(CC(C)(C)O)cc1NC(=O)c1cnn2cccnc12` [Example 143, N-(1-(2-hydroxy-2-methylpropyl)-3-(5-methoxy-2-(trifluoromethyl)pyridin-4-yl)-1H-pyrazol-4-yl)pyrazolo[1,5-a]pyrimidine-3-carboxamide], the negative logarithm of the Ki (pKi) on JAK1 kinase domain was 7.92; on JAK2 kinase domain it was 7.41; on TYK2 kinase domain, 6.46; on JAK3 kinase domain, 5.82.
The like results for `COc1ccc(C#N)cc1-c1nn(Cc2ncnn2C)cc1NC(=O)c1cnn2cccnc12` [Example 155] were, in that order, 8.38, 8.59, 7.19 and 6.68.
The like results for `COc1ncc(C#N)cc1-c1n[nH]cc1NC(=O)c1cnn2cccnc12` [Example 158, N-(3-(5-Cyano-2-methoxypyridin-3-yl)-1H-pyrazol-4-yl)pyrazolo[1,5-a]pyrimidine-3-carboxamide] were, in that order, 8.32, 8.82, 8.18 and 7.28.
`COc1ccc(Cl)cc1-c1nc(C)sc1NC(=O)c1cnn2cccnc12` [Example 170, N-(4-(5-chloro-2-methoxyphenyl)-2-methylthiazol-5-yl)pyrazolo[1,5-a]pyrimidine-3-carboxamide]: the pKi at JAK1 kinase domain was 9.15; on JAK2 kinase domain, 9.40; at TYK2 kinase domain, 8.68; at JAK3 kinase domain it was 7.89.
Taken in the same sequence, the figures for `O=C(Nc1c[nH]nc1-n1cc(Cl)ccc1=O)c1cnn2cccnc12` [Example 194, N-(3-(5-chloro-2-oxopyridin-1(2H)-yl)-1H-pyrazol-4-yl)pyrazolo[1,5-a]pyrimidine-3-carboxamide] were 6.11, 6.96, 6.01 and 5.39.
Taken in the same sequence, the figures for `COc1ccc(Cl)cc1-c1c(NC(=O)c2c(N)nn3cccnc23)cnn1CC(N)=O` [Example 217, 2-amino-N-(1-(2-amino-2-oxoethyl)-5-(5-chloro-2-methoxyphenyl)-1H-pyrazol-4-yl)pyrazolo[1,5-a]pyrimidine-3-carboxamide] were 8.68, 9.30, 8.64 and 8.26.
As for `COc1ccc(Cl)cc1-c1nn(CC(=O)N2CCCC2C)cc1NC(=O)c1cnn2cccnc12` (stereo not drawn) [Example 283, N-(3-(5-chloro-2-methoxyphenyl)-1-(2-(2-methylpyrrolidin-1-yl)-2-oxoethyl)-1H-pyrazol-4-yl)pyrazolo[1,5-a]pyrimidine-3-carboxamide], the negative logarithm of the Ki (pKi) was 9.15 on JAK1 kinase domain, 8.51 at JAK2 kinase domain, 8.04 on TYK2 kinase domain and 6.57 on JAK3 kinase domain.

The values are drawn from patent US8999998B2, “Pyrazolopyrimidine JAK inhibitor compounds and methods” (Genentech, Inc., priority 2009, dated 2015).
